Assay results: PubChem BioAssay AID720601 (Broad Institute, 2013)
Inconclusive results are not listed. Activity calls are given as the source filed them.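 Rule for the calls: active = compounds lowering the viability dye signal with a fitted AC50 within twice the top dose in all three time points; inconclusive = time points disagree in their calls; inactive = inactive at every time point, including signal rises.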

Legend:
[1] = cytotoxicity in immortalized mouse myoblasts – cell-based, Alamar Blue fluorescence, 8/24/48 h, dry powder, cytotoxicity control for HRAS target identification, dose response (AID 720601); conditions: C2C12 mouse myoblast viability, Alamar Blue, 8/24/48 h, at 35 µM, stronger effect = lower value
[2] = test system: C2C12 mouse myoblast viability, Alamar Blue, 8/24/48 h; assay: as above

With CCC(=O)N(c1ccc(OC)c(Cl)c1)C(C(=O)NCCc1ccccc1)c1cccs1 (stereo not given) the activity ([1]; 8 h viability change) was 0.483%, the activity ([1]; 24 h viability change) was -13.2% and the AC50 [2] was > 70 µM (inactive).

Cc1onc(C(=O)N2CCN(C(c3ccncc3)c3ccncc3)CC2)c1[N+](=O)[O-] gave an activity ([1]; 8 h viability change) of -0.518% and an activity ([1]; 24 h viability change) of -6.22%.
